Laboratory results published in the OPERA property sets (Mansouri et al. 2018).

Row | Compound | logP
1 | COc1ccccc1N1CCN(CCCOc2ccc(F)cc2)CC1 | 4.1
2 | COc1ccccc1N1CCN(CCCC(O)c2ccc(F)cc2)CC1 (configuration not stated) | 3.4
3 | COc1ccccc1N1CCN(CCNC(=N)C2CCCCC2)CC1 | 3.4
4 | COc1ccccc1N1CCN(CCNC(C)=O)CC1 | 0.5
5 | COc1ccccc1N1CCN(CCNC(=O)c2ccccc2)CC1 | 2.2
6 | COc1ccccc1N1CCN(CCNC(=O)c2cccnc2)CC1 | 1.2
7 | COc1ccccc1N1CCN(CCNC(=O)c2ccc[nH]2)CC1 | 1.6
8 | COc1ccccc1N1CCN(CCNC(=O)C2CCCCC2)CC1 | 2.8
9 | COc1ccccc1N1CCN(CCNC(=O)c2ccco2)CC1 | 1.6
10 | COc1ccccc1N1CCN(CCCCc2ccc(F)cc2)CC1 | 4.8
11 | COc1ccccc1N1CCN(CCNC(=O)c2ccc(F)cc2)CC1 | 2.5
12 | COc1ccccc1N1CCN(CCNC(=S)C2CCCCC2)CC1 | 3.7
13 | COc1ccccc1N1CCN(CCOCc2ccc(F)cc2)CC1 | 3.6
14 | COc1ccccc1N1CCN(CCNC(=O)c2ccncn2)CC1 | 1.5
15 | COc1ccccc1N1CCN(CCCC(=O)c2ccc(F)cc2)CC1 | 3.6
16 | COc1ccccc1N1CCN(CCC=Cc2ccc(F)cc2)CC1 | 4.7
17 | COc1ccccc1N1CCN(CCNC(=O)c2cccs2)CC1 | 2
